Source: article PMC10850145, “Hormonal steroids induce multidrug resistance and stress response genes in Neisseria gonorrhoeae by binding to MtrR” (Nature Communications, 2024)
Where “and” joins values, the source holds several entries; their conditions need not be identical. Equal entries are not always repeated. Where two headings read alike, the source gives them in different places.

Columns and labels:
MtrR = target: T1, MtrR (Neisseria gonorrhoeae, UniProt P39897); assay: Isothermal titration calorimetry, ligand binding to MtrR WT; conditions: ITC
T1 construct: Hexa-histidine tag with TEV protease cleavage site (N, cleaved yes); made in house; host or cells: E. coli Rosetta Gami B(DE3) pLysS

MtrR R176E = target: T2, MtrR R176E (Neisseria gonorrhoeae, UniProt P39897, R176E); assay: biochemical; format: binding
T2 construct: Hexa-histidine tag with TEV protease cleavage site (N, cleaved yes); made in house; host or cells: E. coli Rosetta Gami B(DE3) pLysS

MtrR D171A = target: T3, MtrR D171A (Neisseria gonorrhoeae, UniProt P39897, D171A); assay: biochemical; format: binding; conditions: ITC
T3 construct: Hexa-histidine tag with TEV protease cleavage site (N, cleaved yes); made in house; host or cells: E. coli Rosetta Gami B(DE3) pLysS

[1] = target: T4, MtrR binding to rpoH operator (27mer) (Neisseria gonorrhoeae, UniProt P39897); assay: Fluorescence polarization based DNA binding assay, rpoH operator; conditions: rpoH 27mer + 125 µM steroid
T4 construct: Hexa-histidine tag with TEV protease cleavage site (N, cleaved yes); made in house; host or cells: E. coli Rosetta Gami B(DE3) pLysS
Protocol: (§1) Fluorescence polarization based-DNA binding data were collected using a Panvera Beacon 2000 fluorescence polarization system (Invitrogen) and analyzed with Prism (Graphpad Software 9, 10). Purified MtrR was buffer exchanged into “DNA” binding buffer (150 mM NaCl, 20 mM Tris-HCl pH 7.5, 2.5% glycerol, 1 mM TCEP). […] The reported oligoduplexes containing the rpoH and mtrCDE binding site differ in lengths, 27mer and 21mer, respectively[17],[21]. […] BSA and dI-dC are included as carriers and to control for nonspecific DNA binding. Samples were excited at 490 nm and polarized emissions measured at 530 nm. Controls were run with no protein (DNA ± methanol, hormonal steroids) to ensure that millipolarization values were not affected by experimental conditions alone. The binding affinity of protein for DNA was determined using the following equation: P = Pf + (Pb – Pf) [M] / (Kd + [M]) where P is the measured polarization, Pf is the polarization of free DNA, Pb is the polarization of the completely bound DNA, Kd is the equilibrium dissociation constant, and M is the concentration of protein. Pb and Kd were determined by nonlinear least-squares analysis. At least three independent experimental measurements were averaged for each reported binding constant.

[2] = target: T5, MtrR binding to mtrCDE operator (21mer) (Neisseria gonorrhoeae, UniProt P39897); assay: Fluorescence polarization based DNA binding assay, mtrCDE operator; conditions: mtrCDE 21mer + 125 µM steroid
T5 construct: Hexa-histidine tag with TEV protease cleavage site (N, cleaved yes); made in house; host or cells: E. coli Rosetta Gami B(DE3) pLysS
Protocol: as §1

gonococcal strain FA19 = assay: MIC of steroidal hormones on GC agar, strain FA19; format: cell-based; conditions: Neisseria gonorrhoeae
Protocol: (§2) To determine the minimal inhibitory concentrations (MICs) by the steroidal hormones and their effect on antimicrobial susceptibility, 5 x 10^5 CFU and 1:5 serial dilutions of gonococcal strains were spotted on GC agar plates containing different concentrations of antibiotics and/or hormones as indicated. Antimicrobial susceptibility was assessed after 24 h incubation.
(§3) Table S1. Steroidal hormones are substrates of the MtrCDE efflux pump
(§4) Progesterone Testosterone
(§5) *Minimal inhibition concentration is defined by the lowest concentration at which visible growth is […]

FA19 mtrD::kan (KH14) = assay: MIC of steroidal hormones on GC agar, FA19 mtrD::kan (KH14); format: cell-based, Neisseria gonorrhoeae
Protocol: as §2, §3, §4, §5

N. gonorrhoeae = tested on: N. gonorrhoeae; design: method as in PMID 816438; conditions: cited from earlier work

T1 sequence (P39897 whole entry): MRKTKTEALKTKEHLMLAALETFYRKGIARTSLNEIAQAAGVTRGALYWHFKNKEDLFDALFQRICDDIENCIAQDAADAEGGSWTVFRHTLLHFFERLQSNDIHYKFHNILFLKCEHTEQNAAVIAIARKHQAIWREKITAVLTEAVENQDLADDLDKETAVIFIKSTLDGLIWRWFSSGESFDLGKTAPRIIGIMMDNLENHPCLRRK
T5 sequence (P39897 whole entry): as above
T4 sequence (P39897 whole entry): as above
T2 sequence (P39897 whole entry R176E): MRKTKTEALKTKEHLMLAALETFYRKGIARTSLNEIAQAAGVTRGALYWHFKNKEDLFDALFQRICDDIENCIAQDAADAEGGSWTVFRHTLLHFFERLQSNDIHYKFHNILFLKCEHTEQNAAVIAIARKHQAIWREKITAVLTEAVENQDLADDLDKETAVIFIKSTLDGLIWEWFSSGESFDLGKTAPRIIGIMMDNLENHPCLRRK
T3 sequence (P39897 whole entry D171A): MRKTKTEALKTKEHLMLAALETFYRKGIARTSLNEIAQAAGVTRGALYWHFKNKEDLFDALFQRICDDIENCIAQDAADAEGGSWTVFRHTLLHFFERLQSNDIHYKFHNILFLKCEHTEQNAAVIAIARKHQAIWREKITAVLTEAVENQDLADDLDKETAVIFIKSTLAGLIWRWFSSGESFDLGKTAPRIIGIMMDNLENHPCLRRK

With `C[C@]12CC[C@@H]3c4ccc(O)cc4CC[C@H]3[C@@H]1CC[C@@H]2O` [β-Estradiol, β-estradiol] the “binding stoichiometry N (ligand per MtrR)” value (MtrR) was ~ 1, the Kd (MtrR; 25 °C, 1% MeOH, read-out: equilibrium dissociation constant (Kd), MtrR WT) was 1670 nM and ~1670 nM and the “binding stoichiometry N (ligand per MtrR)” value (MtrR; listed as EST) was “one molecule of steroid per MtrR monomer”. For the same compound, the Kd (MtrR R176E) was 720 ± 150 nM, the “binding to MtrR D171A” value (MtrR D171A) was “no observable binding” and the “fluorescence polarization, MtrR titration” value (“fluorescence polarization” below) ([1]; MtrR WT dimer 0.00 nM) was 0.00 mP. The “fluorescence polarization” value ([1]; MtrR WT dimer 25.90 nM) was 3.74 mP and 5.72 mP and 6.73 mP, the “fluorescence polarization” value ([1]; MtrR WT dimer 35.50 nM) was 6.01 mP and 7.12 mP and 8.13 mP and the “fluorescence polarization” value ([1]; MtrR WT dimer 54.52 nM) was 8.01 mP and 9.55 mP and 10.56 mP. The “fluorescence polarization” value ([1]; MtrR WT dimer 73.35 nM) was 11.39 mP and 12.36 mP, the “fluorescence polarization” value ([1]; MtrR WT dimer 110.67 nM) was 12.31 mP and 14.15 mP and 15.93 mP and the “fluorescence polarization” value ([1]; MtrR WT dimer 147.65 nM) was 15.17 mP and 15.72 mP and 17.43 mP. For the same compound, the “fluorescence polarization” value ([1]; MtrR WT dimer 220.59 nM) was 18.17 mP and 19.19 mP and 21.36 mP, the “fluorescence polarization” value ([1]; MtrR WT dimer 292.55 nM) was 20.01 mP and 21.72 mP and 23.36 mP and the “fluorescence polarization” value ([1]; MtrR WT dimer 363.86 nM) was 21.41 mP and 22.99 mP and 26.06 mP. The “fluorescence polarization” value ([1]; MtrR WT dimer 434.54 nM) was 23.51 mP and 24.99 mP and 26.53 mP, the “fluorescence polarization” value ([1]; MtrR WT dimer 504.61 nM) was 25.37 mP and 27.45 mP and 28.59 mP and the “fluorescence polarization” value ([1]; MtrR WT dimer 574.07 nM) was 29.37 mP and 27.75 mP and 29.19 mP. For the same compound, the “fluorescence polarization” value ([2]; MtrR WT dimer 0.00 nM) was 0.00 mP, the “fluorescence polarization” value ([2]; MtrR WT dimer 6.35 nM) was 4.51 mP and 6.27 mP and 3.99 mP and the “fluorescence polarization” value ([2]; MtrR WT dimer 11.32 nM) was 5.41 mP and 7.10 mP and 5.13 mP. For the same compound, the “fluorescence polarization” value ([2]; MtrR WT dimer 16.21 nM) was 7.14 mP and 8.80 mP and 6.33 mP, the “fluorescence polarization” value ([2]; MtrR WT dimer 35.50 nM) was 8.94 mP and 8.19 mP and the “fluorescence polarization” value ([2]; MtrR WT dimer 73.35 nM) was 10.97 mP and 13.97 mP and 11.09 mP. The “fluorescence polarization” value ([2]; MtrR WT dimer 110.67 nM) was 13.61 mP and 15.83 mP and 13.69 mP, the “fluorescence polarization” value ([2]; MtrR WT dimer 147.65 nM) was 16.87 mP and 18.60 mP and 16.09 mP and the “fluorescence polarization” value ([2]; MtrR WT dimer 220.59 nM) was 20.11 mP and 24.13 mP and 19.63 mP. For the same compound, the “fluorescence polarization” value ([2]; MtrR WT dimer 292.55 nM) was 24.17 mP and 25.77 mP and 23.16 mP, the “fluorescence polarization” value ([2]; MtrR WT dimer 363.86 nM) was 26.44 mP and 29.33 mP and 25.99 mP and the “fluorescence polarization” value ([2]; MtrR WT dimer 434.54 nM) was 30.01 mP and 30.57 mP and 27.99 mP. The “fluorescence polarization” value ([2]; MtrR WT dimer 504.61 nM) was 31.07 mP and 33.77 mP and 30.59 mP, the “fluorescence polarization” value ([2]; MtrR WT dimer 574.07 nM) was 34.21 mP and 36.80 mP and 32.93 mP and the “fluorescence polarization” value ([2]; MtrR WT dimer 711.46 nM) was 37.61 mP and 38.13 mP and 35.23 mP. For the same compound, the “fluorescence polarization” value ([2]; MtrR WT dimer 848.00 nM) was 39.37 mP and 41.63 mP and 41.06 mP, the MIC (gonococcal strain FA19; FA19, 24 h) was greater than 1180 µM and the MIC (gonococcal strain FA19; strain FA19, GC agar, read-out: MIC) was greater than 320 µg/mL. The MIC (FA19 mtrD::kan (KH14); Neisseria gonorrhoeae) was 320 µg/mL and 1180 µM, the “effect of mtrD deletion on MIC” value (FA19 mtrD::kan (KH14); vs FA19) was “lowered” and the “growth inhibition of N. gonorrhoeae” value (N. gonorrhoeae) was “arrest N. gonorrhoeae growth”.
